# Source: patent publication US10364233B2, “Piperidine derivative and methods of use thereof” (vTv Therapeutics LLC, priority 2016, dated 2019)
# Read-outs that look alike come from different tables or passages of the source.
# How the values were obtained:
# [1] = target: sRAGE (S100b as the RAGE ligand) (Homo sapiens, UniProt Q15109); assay: General binding assay: inhibition of sRAGE binding to plate-bound S100b; conditions: n = 13, hydrochloride salt
# Protocol: (§1) The following is one potential method for screening. S100b or β-amyloid (500 ng/100 μL/well) in 100 mM sodium bicarbonate/sodium carbonate buffer (pH 9.8) is loaded onto the wells of a NUNC Maxisorp flat bottom 96-well microtitre plate. The plate is incubated at 4° C. overnight. The wells are aspirated and treated with 50 mM imidazole buffer saline (pH 7.2) (with 5 mM CaCl2)/MgCl2) containing 1% bovine serum albumin (BSA) (300 μL/well) for 1 h at RT. The wells are aspirated.
# (§2) The test compound is dissolved in nanopure water (concentration: 10-100 μM). DMSO may be used as co-solvent. 25 μL of test compound solution in 4% DMSO is added, along with 75 μL sRAGE (6 nM FAC) to each well and samples are incubated for 1 h at 37° C. The wells are washed several times with 155 mM NaCl pH 7.2 buffer saline and are soaked for several seconds between each wash.
# (§3) Non-Radioactive Detection is Performed by Adding:
# (§4) 10 μL Biotinylated goat F(ab′)2 Anti-mouse IgG. […]
# (§5) 100 μL of complex is added to each well and incubation is allowed to proceed at rt for 1 h. […] The reaction is quenched with 10 μL of stop solution (0.5-1.0 N NaOH in 50% ethanol) and the absorbance is measured spectrophotometrically with a microplate reader at 405 nm. […]
# [2] = target: sRAGE (β-amyloid as the RAGE ligand) (Homo sapiens, UniProt Q15109); assay: General binding assay: inhibition of sRAGE binding to plate-bound β-amyloid; conditions: n = 11, hydrochloride salt
# Sequence of UniProt Q15109 (Q15109 23-342 limits assumed): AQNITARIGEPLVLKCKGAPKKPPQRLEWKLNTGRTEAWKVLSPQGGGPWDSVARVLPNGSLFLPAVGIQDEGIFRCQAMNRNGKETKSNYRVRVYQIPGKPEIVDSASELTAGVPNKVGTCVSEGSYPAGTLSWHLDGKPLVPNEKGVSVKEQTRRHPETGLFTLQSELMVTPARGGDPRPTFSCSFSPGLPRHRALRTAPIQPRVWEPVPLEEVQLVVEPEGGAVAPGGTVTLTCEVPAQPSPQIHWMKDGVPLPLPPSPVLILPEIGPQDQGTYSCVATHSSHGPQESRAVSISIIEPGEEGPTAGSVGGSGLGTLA
# Protocol: as §1, §2, §3, §4, §5
# [3] = tested on: S100b mediated TNF release from THP-1 cells (RAGE signaling); assay: Functional assay: inhibition of S100b mediated TNF release from THP-1 cells; type: cell-based; conditions: Homo sapiens; THP-1 cells stimulated with bovine S100b; TNF-alpha by ELISA after 24 hours; hydrochloride salt
# Protocol: Previously the literature has cited that THP-1 cells in response to RAGE ligands secrete TNF alpha (Yeh C-H, et al. Diabetes. Vol. 50, June 2001, pp. 1495-1504). The following assay method may be used to identify compounds of Formula (I) or pharmaceutically acceptable salts thereof which are useful as antagonists of RAGE signaling.
# The myeloid cell line, THP-1 (ATTC # TIB-202), is cultured in RPMI-1640 media (ATCC, Cat #30-2001) supplemented with fetal bovine serum to a final concentration of 10% by volume and Penicillin-Streptomycin (Gibco, Cat #0.15140-122). Alternatively, media may be formulated using RPMI 1640 (Bio-Whitaker #12-702F) supplemented with 2 mM L-glutamine (Gibco #12381-018) adjusted to contain 1.5 g/L sodium bicarbonate (Gibco #25080-094), 4.5 g/L glucose, 10 mM HEPES (Cellgro #25-060-L1) and 1.0 mM sodium pyruvate (Gibco #11360-070) and supplemented with 0.05 mM 2-mercaptoethanol, […] per ATCC instructions. During culture, the culture cells may be maintained at a density between 5×10^4 and 1×10^6 viable cells/mL. […]
# The amount of TNF-alpha secreted by the THP-1 cells may be measured 24 hours after the addition of the stimulant proteins to the cell culture using a commercially available ELISA kit (R&D Systems, Minneapolis, Minn. # DY210). […] The plate may be read at 450 nm within 30 minutes. […]
# Sequence of UniProt Q15109 (Q15109 23-342 limits assumed): as above
compound,measurement,setting,value
"Cc1nn(C2CCCCC2)c(C)c1S(=O)(=O)N1CCC(CN(CC(C)C)S(=O)(=O)c2ccc(CNCC3CCNCC3)cc2)(c2ccccc2)CC1 [compound of Formula (I), N-[1-(1-Cyclohexyl-3,5-dimethyl-1H-pyrazole-4-sulfonyl)-4-phenyl-piperidin-4-ylmethyl]-N-isobutyl-4-{[(piperidin-4-ylmethyl)-amino]-methyl}-benzenesulfonamide]",IC50,"[1]; average, read-out: IC50 (S100b) average",0.42 µM
same,IC50,"[1]; range of individual determinations, read-out: IC50 (S100b)",0.22 to 0.62 µM
same,IC50,"[2]; average, read-out: IC50 (β-amyloid) average",0.4 µM
same,IC50,"[2]; range of individual determinations, read-out: IC50 (β-amyloid)",0.27 to 0.6 µM
same,IC50,[3],~0.5 µM
